Measured values reported in the NIST ThermoML archive (doi:10.1016/j.jct.2019.03.023).
“And” between values parts separate entries of the source, which are not always exact repeats. Identical values can stand only once.

Assay: molar heat capacity at constant volume
Details: Vacuum adiabatic calorimetry

CC(C)O [propan-2-ol]
Fluid (supercritical or subcritical phases)
Details | molar heat capacity at constant volume
508.38 K, Mass density=274 kg/m3 | 423.79 J/K/mol
508.38 K, Mass density=281.9 kg/m3 | 417.78 J/K/mol
508.38 K, Mass density=288.99 kg/m3 | 404.68 J/K/mol
508.38 K, Mass density=293.3 kg/m3 | 398.73 J/K/mol
508.38 K, Mass density=343.1 kg/m3 | 178 J/K/mol
508.47 K, Mass density=234.3 kg/m3 | 474.81 J/K/mol
508.47 K, Mass density=255.8 kg/m3 | 454.98 J/K/mol
508.47 K, Mass density=266.3 kg/m3 | 444.04 J/K/mol
508.47 K, Mass density=274 kg/m3 | 437.73 J/K/mol
508.47 K, Mass density=281.9 kg/m3 | 430.04 J/K/mol
508.47 K, Mass density=288.99 kg/m3 | 411.05 J/K/mol
508.47 K, Mass density=293.3 kg/m3 | 405.04 J/K/mol
508.47 K, Mass density=324.5 kg/m3 | 207.09 J/K/mol
508.47 K, Mass density=329.2 kg/m3 | 191.7 J/K/mol
508.47 K, Mass density=343.1 kg/m3 | 175.96 J/K/mol
508.51 K, Mass density=234.3 kg/m3 | 487.37 J/K/mol and 279.44 J/K/mol
508.56 K, Mass density=234.3 kg/m3 | 267.78 J/K/mol
508.56 K, Mass density=255.8 kg/m3 | 471.14 J/K/mol
508.56 K, Mass density=266.3 kg/m3 | 462.31 J/K/mol
508.56 K, Mass density=274 kg/m3 | 451.49 J/K/mol
508.56 K, Mass density=281.9 kg/m3 | 440.92 J/K/mol
508.56 K, Mass density=288.99 kg/m3 | 425.11 J/K/mol
508.56 K, Mass density=293.3 kg/m3 | 419.1 J/K/mol
508.56 K, Mass density=324.5 kg/m3 | 206.31 J/K/mol
508.56 K, Mass density=343.1 kg/m3 | 177.52 J/K/mol
508.57 K, Mass density=329.2 kg/m3 | 186.9 J/K/mol
508.61 K, Mass density=293.3 kg/m3 | 422.11 J/K/mol
508.66 K, Mass density=234.3 kg/m3 | 258.83 J/K/mol
508.66 K, Mass density=255.8 kg/m3 | 495.78 J/K/mol
508.66 K, Mass density=266.3 kg/m3 | 484.85 J/K/mol
508.66 K, Mass density=274 kg/m3 | 472.11 J/K/mol
508.66 K, Mass density=281.9 kg/m3 | 456.18 J/K/mol
508.66 K, Mass density=288.99 kg/m3 | 439.35 J/K/mol
508.66 K, Mass density=293.3 kg/m3 | 428.48 J/K/mol
508.66 K, Mass density=324.5 kg/m3 | 201.38 J/K/mol
508.66 K, Mass density=343.1 kg/m3 | 178 J/K/mol
508.67 K, Mass density=274 kg/m3 | 481 J/K/mol
508.67 K, Mass density=329.2 kg/m3 | 188.1 J/K/mol
508.68 K, Mass density=281.9 kg/m3 | 461.83 J/K/mol
508.68 K, Mass density=293.3 kg/m3 | 434.49 J/K/mol and 253.6 J/K/mol
508.69 K, Mass density=255.8 kg/m3 | 507.8 J/K/mol
508.69 K, Mass density=274 kg/m3 | 491.94 J/K/mol
508.69 K, Mass density=288.99 kg/m3 | 447.41 J/K/mol and 264.72 J/K/mol
508.7 K, Mass density=255.8 kg/m3 | 524.03 J/K/mol and 301.68 J/K/mol
508.71 K, Mass density=266.3 kg/m3 | 520.48 J/K/mol
508.71 K, Mass density=281.9 kg/m3 | 469.58 J/K/mol and 277.46 J/K/mol
508.72 K, Mass density=266.3 kg/m3 | 572.71 J/K/mol and 337.73 J/K/mol
508.72 K, Mass density=274 kg/m3 | 515.62 J/K/mol and 304.08 J/K/mol
508.72 K, Mass density=293.3 kg/m3 | 245.07 J/K/mol
508.73 K, Mass density=255.8 kg/m3 | 293.08 J/K/mol
508.74 K, Mass density=281.9 kg/m3 | 270.61 J/K/mol
508.75 K, Mass density=234.3 kg/m3 | 245.01 J/K/mol
508.75 K, Mass density=266.3 kg/m3 | 306.97 J/K/mol
508.75 K, Mass density=288.99 kg/m3 | 247.77 J/K/mol
508.75 K, Mass density=324.5 kg/m3 | 199.15 J/K/mol
508.75 K, Mass density=343.1 kg/m3 | 175.96 J/K/mol
508.76 K, Mass density=329.2 kg/m3 | 186.9 J/K/mol
508.84 K, Mass density=234.3 kg/m3 | 238.7 J/K/mol
508.84 K, Mass density=255.8 kg/m3 | 268.32 J/K/mol
508.84 K, Mass density=266.3 kg/m3 | 281.06 J/K/mol
508.84 K, Mass density=274 kg/m3 | 273.13 J/K/mol
508.84 K, Mass density=281.9 kg/m3 | 250 J/K/mol
508.84 K, Mass density=288.99 kg/m3 | 237.68 J/K/mol
508.84 K, Mass density=293.3 kg/m3 | 231.97 J/K/mol
508.84 K, Mass density=324.5 kg/m3 | 196.75 J/K/mol
508.84 K, Mass density=343.1 kg/m3 | 176.44 J/K/mol
508.94 K, Mass density=234.3 kg/m3 | 228.96 J/K/mol
508.94 K, Mass density=255.8 kg/m3 | 253 J/K/mol
508.94 K, Mass density=266.3 kg/m3 | 267.3 J/K/mol
508.94 K, Mass density=274 kg/m3 | 261.53 J/K/mol
508.94 K, Mass density=281.9 kg/m3 | 233.77 J/K/mol
508.94 K, Mass density=288.99 kg/m3 | 223.91 J/K/mol
508.94 K, Mass density=293.3 kg/m3 | 219.23 J/K/mol
508.94 K, Mass density=324.5 kg/m3 | 197.11 J/K/mol
509.02 K, Mass density=255.8 kg/m3 | 241.34 J/K/mol
509.03 K, Mass density=266.3 kg/m3 | 252.46 J/K/mol
509.03 K, Mass density=274 kg/m3 | 247.59 J/K/mol
509.03 K, Mass density=281.9 kg/m3 | 225.96 J/K/mol
509.03 K, Mass density=288.99 kg/m3 | 217.96 J/K/mol
509.03 K, Mass density=293.3 kg/m3 | 209.73 J/K/mol
509.03 K, Mass density=324.5 kg/m3 | 192.42 J/K/mol
509.12 K, Mass density=234.3 kg/m3 | 213.22 J/K/mol
509.12 K, Mass density=266.3 kg/m3 | 242.96 J/K/mol
509.12 K, Mass density=274 kg/m3 | 238.4 J/K/mol
509.12 K, Mass density=281.9 kg/m3 | 217.24 J/K/mol

molar heat capacity at constant volume [J/K/mol]
Details | 508.51 K | 508.68 K | 508.69 K | 508.7 K | 508.71 K | 508.72 K
Gas | 279.44 | – | – | 301.68 | – | 337.73
Liquid | – | 253.6 | 264.72 | – | 277.46 | 304.08
